According to ChEMBL document CHEMBL3822404, “Design, synthesis and biological evaluation of novel 3-alkylsulfanyl-4-amino-1,2,4-triazole derivatives” (Bioorg Med Chem Lett, 2016):

What was measured:
HeLa [1] = experiment: Antiproliferative activity against human HeLa cells measured after 48 hrs by MTT assay; format: functional, cell-based
[2] = Antiproliferative activity against human HCT116 cells measured after 48 hrs by MTT assay; format: functional, cell-based; conditions: HCT-116, 48 h
HepG2 = experiment: Antiproliferative activity against human HepG2 cells measured after 48 hrs by MTT assay; format: functional, cell-based; conditions: HepG2, 48 h
[3] = Antiproliferative activity against human PC3 cells measured after 48 hrs by MTT assay; format: functional, cell-based; conditions: PC-3, 48 h
HEK293 = experiment: Cytotoxicity against HEK293 cells measured after 48 hrs by MTT assay; format: cell-based; conditions: Homo sapiens, HEK293, 48 h
HeLa [4] = experiment: Induction of cell cycle arrest in human HeLa cells assessed as accumulation at G0/G1 phase at 8 uM measured after 12 to 18 hrs by […] cell sorting analysis (reference value: 64.31%); format: functional
HeLa [5] = experiment: Induction of cell cycle arrest in human HeLa cells assessed as accumulation at G0/G1 phase at 4 uM measured after 12 to 18 hrs by […] cell sorting analysis (reference value: 64.31%); format: functional
HeLa [6] = experiment: Induction of cell cycle arrest in human HeLa cells assessed as accumulation at G2/M phase at 4 uM measured after 12 to 18 hrs by […] cell sorting analysis (reference value: 16.67%); format: functional
HeLa [7] = experiment: Induction of cell cycle arrest in human HeLa cells assessed as accumulation at S phase at 4 uM measured after 12 to 18 hrs by […] cell sorting analysis (reference value: 19.02%); format: functional
HeLa [8] = experiment: Induction of cell cycle arrest in human HeLa cells assessed as accumulation at S phase at 2 uM measured after 12 to 18 hrs by […] cell sorting analysis (reference value: 19.02%); format: functional
HeLa [9] = experiment: Induction of cell cycle arrest in human HeLa cells assessed as accumulation at S phase at 8 uM measured after 12 to 18 hrs by […] cell sorting analysis (reference value: 19.02%); format: functional
HeLa [10] = experiment: Induction of cell cycle arrest in human HeLa cells assessed as accumulation at G0/G1 phase at 2 uM measured after 12 to 18 hrs by […] cell sorting analysis (reference value: 64.31%); format: functional
HeLa [11] = experiment: Induction of cell cycle arrest in human HeLa cells assessed as accumulation at G2/M phase at 2 uM measured after 12 to 18 hrs by […] cell sorting analysis (reference value: 16.67%); format: functional
HeLa [12] = experiment: Induction of cell cycle arrest in human HeLa cells assessed as accumulation at G2/M phase measured after 18 hrs by […] cell sorting analysis; format: functional, cell-based
HeLa [13] = experiment: Induction of cell cycle arrest in human HeLa cells assessed as accumulation at G2/M phase at 8 uM measured after 12 to 18 hrs by […] cell sorting analysis (reference value: 16.67%); format: functional

Row | Structure (SMILES) | IC50 (HeLa [1]) | IC50 [2] | IC50 (HepG2) | IC50 [3] | also measured
1 | COc1cc(-c2nnc(SCC(=O)Nc3ccccc3C)n2N)cc(OC)c1OC | > 100 µM | > 100 µM | > 100 µM | > 100 µM | –
2 | COc1cc(-c2nnc(SCC(=O)NCc3ccc(Cl)cc3)n2N)cc(OC)c1OC | > 100 µM | > 100 µM | > 100 µM | > 100 µM | –
3 | COc1cc(-c2nnc(SCC(=O)c3ccc(Br)cc3)n2N)cc(OC)c1OC | 10.4 µM | 9.23 µM | 92.5 µM | > 100 µM | –
4 | COc1cccc(NC(=O)CSc2nnc(-c3cc(OC)c(OC)c(OC)c3)n2N)c1 | 4.02 µM | 0.68 µM | > 100 µM | > 100 µM | IC50 (HEK293): 100 µM
5 | COc1cc(NC(=O)CSc2nnc(-c3cc(OC)c(OC)c(OC)c3)n2N)cc(OC)c1OC | > 100 µM | > 100 µM | > 100 µM | > 100 µM | –
6 | COc1cc(-c2nnc(SCC(=O)c3ccccc3)n2N)cc(OC)c1OC | > 100 µM | 53 µM | 7.8 µM | > 100 µM | –
7 | COc1cc(-c2nnc(SCC(=O)Nc3ccccc3)n2N)cc(OC)c1OC | 8.28 µM | 1.73 µM | 49.9 µM | 37.9 µM | –
8 | COc1cc(-c2nnc(SCC(=O)c3ccc(F)c(F)c3)n2N)cc(OC)c1OC | > 100 µM | 10.4 µM | > 100 µM | > 100 µM | –
9 | COc1cc(-c2nnc(SCC(=O)NCCc3ccc(C)cc3)n2N)cc(OC)c1OC | > 100 µM | > 100 µM | > 100 µM | 41.3 µM | –
10 | COc1ccc(C(=O)CSc2nnc(-c3cc(OC)c(OC)c(OC)c3)n2N)cc1 | 17.4 µM | 1.24 µM | > 100 µM | 97.9 µM | IC50 (HEK293): 100 µM
11 | COc1cc(-c2nnc(SCC(=O)NCc3ccc(C)cc3)n2N)cc(OC)c1OC | > 100 µM | > 100 µM | > 100 µM | 92.8 µM | –
12 | COc1cc(-c2nnc(SCC(=O)c3cccc(Br)c3)n2N)cc(OC)c1OC | 77.5 µM | 5.32 µM | 56 µM | > 100 µM | –
13 | COc1cc(-c2nnc(SCC(=O)NCCc3ccc(Cl)cc3)n2N)cc(OC)c1OC | 79.9 µM | 39.6 µM | > 100 µM | > 100 µM | –
14 | COc1cc(-c2nnc(SCC(=O)c3ccccc3F)n2N)cc(OC)c1OC | 80.1 µM | 10.8 µM | 22.6 µM | 43.1 µM | –
15 | COc1ccc(CNC(=O)CSc2nnc(-c3cc(OC)c(OC)c(OC)c3)n2N)cc1OC | > 100 µM | > 100 µM | > 100 µM | > 100 µM | –
16 | COc1cc(-c2nnc(SCC(=O)NCCc3ccccc3)n2N)cc(OC)c1OC | > 100 µM | > 100 µM | > 100 µM | 80.5 µM | –
17 | COc1cc(-c2nnc(SCC(=O)c3ccc(F)cc3)n2N)cc(OC)c1OC | 20.9 µM | 3.23 µM | 90.4 µM | > 100 µM | –
18 | O=c1[nH]cc(F)c(=O)[nH]1 [FLUOROURACIL] | 57.2 µM | 68.7 µM | – | 57 µM | –
19 | COc1ccc(CCNC(=O)CSc2nnc(-c3cc(OC)c(OC)c(OC)c3)n2N)cc1 | > 100 µM | > 100 µM | > 100 µM | 73.6 µM | –
20 | COc1cc(-c2nnc(SCC(=O)Nc3ccc(C)cc3)n2N)cc(OC)c1OC | 4.77 µM | 3.45 µM | > 100 µM | 43.1 µM | IC50 (HEK293): 79.4 µM
21 | COc1cc(-c2nnc(SCC(=O)Nc3ccccc3F)n2N)cc(OC)c1OC | 38.2 µM | 1.16 µM | 18.7 µM | 36.7 µM | IC50 (HEK293): > 100 µM
22 | COc1cc(-c2nnc(SCC(=O)c3ccc(C(F)(F)F)cc3)n2N)cc(OC)c1OC | 3.38 µM | 16.7 µM | > 100 µM | > 100 µM | –
23 | COc1cc(-c2nnc(SCC(=O)c3ccc(C)cc3)n2N)cc(OC)c1OC | 2.94 µM | 0.37 µM | > 100 µM | 31.3 µM | Activity (HeLa [4]): 7.37%; Activity (HeLa [5]): 12.41%; Activity (HeLa [6]): 70.18%; Activity (HeLa [7]): 17.42%; Activity (HeLa [8]): 14.07%; Activity (HeLa [9]): 13.81%; Activity (HeLa [10]): 53.39%; Activity (HeLa [11]): 32.55%; IC50 (HEK293): 100 µM; Activity (HeLa [12]): Dose-dependent effect; Activity (HeLa [13]): 78.81%
24 | COc1cc(-c2nnc(SCC(=O)NCCc3ccc(F)cc3)n2N)cc(OC)c1OC | 66.5 µM | > 100 µM | > 100 µM | 56.1 µM | –
25 | COc1cc(-c2nnc(SCC(=O)c3ccc(Cl)cc3)n2N)cc(OC)c1OC | 13.1 µM | 7.5 µM | > 100 µM | > 100 µM | –
